Data on two molecules can be found in ChEMBL document CHEMBL3407484, “Evolution in medicinal chemistry of ursolic acid derivatives as anticancer agents” (Eur J Med Chem, 2015).

A word on the IC50: it is the concentration that inhibits the measured activity by half.

What all share (type): functional, cell-based
Test [1] in a line: Cytotoxicity against human SKOV3 cells by MTT assay. To be noted: SK-OV-3. (In general: Tetrazolium assays rely on reduction of a dye to a coloured formazan, in cell work by metabolically active cells.)
Test [2] is described as follows: Cytotoxicity against human BGC823 cells by MTT assay. To be noted: BGC-823.
A further test relates to HeLa. The test can be described thus: Cytotoxicity against human HeLa cells by MTT assay.
The test system of another test is HepG2. The experiment in a line: Cytotoxicity against human HepG2 cells by MTT assay.

For `CC(=O)O[C@H]1CC[C@]2(C)[C@H]3CC=C4[C@@H]5[C@@H](C)[C@H](C)CC[C@]5(C(=O)NCCCN5CCOCC5)CC[C@@]4(C)[C@]3(C)CC[C@H]2C1(C)C`, the IC50 in test [1] was determined as 7.4 µM; in test [2] it was 4.46 µM; in the test on HeLa it was 2.71 µM.

In the test on HepG2, `C[C@H]1[C@H](C)CC[C@]2(C(=O)O)CC[C@]3(C)C(=CC[C@@H]4[C@@]5(C)CC[C@H](OC(=O)CCC(=O)OCCOc6no[n+]([O-])c6S(=O)(=O)c6ccccc6)C(C)(C)[C@@H]5CC[C@]43C)[C@H]12` gave an IC50 of 3.2 µM.
